Test results from US8754242B2, “Herbicides” (Syngenta Crop Protection LLC, priority 2007, dated 2014).

Legend:
Format in all cases: in vivo
[1] = test system: Echinochloa crus-galli (ECHCG); experiment: Test Example 1 post-emergence herbicidal activity; conditions: 360 h, rate 125 g/ha, evaluated 15 days later, read-out: Post-emergence activity ECHCG (100=total damage to plant; 0=no damage to plant)
Procedure, shortened: (§1)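 Sow in pots of standard soil → grow 1 day (pre-emergence) or 10 days (post-emergence) in glasshouse → spray aqueous formulated compound → grow on under optimum conditions → score damage 0–100 at day 20 (pre) or day 15 (post).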

[2] = test system: Alopecurus myosuroides (ALOMY); experiment: Test Example 1 post-emergence herbicidal activity; conditions: 360 h, rate 125 g/ha, evaluated 15 days later, read-out: Post-emergence activity ALOMY (100=total damage to plant; 0=no damage to plant)
Procedure, shortened: as §1

Setaria faberi (SETFA) [3] = experiment: Test Example 1 post-emergence herbicidal activity; conditions: 360 h, rate 125 g/ha, evaluated 15 days later, read-out: Post-emergence activity SETFA (100=total damage to plant; 0=no damage to plant)
Procedure, shortened: as §1

Lolium perenne (LOLPE) [4] = experiment: Test Example 1 post-emergence herbicidal activity; conditions: 360 h, rate 125 g/ha, evaluated 15 days later, read-out: Post-emergence activity LOLPE (100=total damage to plant; 0=no damage to plant)
Procedure, shortened: as §1

Avena fatua (AVEFA) [5] = experiment: Test Example 1 post-emergence herbicidal activity; conditions: 360 h, rate 125 g/ha, evaluated 15 days later, read-out: Post-emergence activity AVEFA (100=total damage to plant; 0=no damage to plant)
Procedure, shortened: as §1

[6] = test system: Digitaria sanguinalis (DIGSA); experiment: Test Example 1 post-emergence herbicidal activity; conditions: 360 h, rate 125 g/ha, evaluated 15 days later, read-out: Post-emergence activity DIGSA (100=total damage to plant; 0=no damage to plant)
Procedure, shortened: as §1

[7] = test system: Echinochloa crus-galli (ECHCG); experiment: Test Example 1 pre-emergence herbicidal activity; conditions: Echinochloa crus-galli, 480 h, rate 250 g/ha, evaluated 20 days later, read-out: Pre-emergence activity ECHCG (100=total damage to plant; 0=no damage to plant)
Procedure, shortened: as §1

[8] = test system: Alopecurus myosuroides (ALOMY); experiment: Test Example 1 pre-emergence herbicidal activity; conditions: Alopecurus myosuroides, 480 h, rate 250 g/ha, evaluated 20 days later, read-out: Pre-emergence activity ALOMY (100=total damage to plant; 0=no damage to plant)
Procedure, shortened: as §1

Setaria faberi (SETFA) [9] = experiment: Test Example 1 pre-emergence herbicidal activity; conditions: Setaria faberi, 480 h, rate 250 g/ha, evaluated 20 days later, read-out: Pre-emergence activity SETFA (100=total damage to plant; 0=no damage to plant)
Procedure, shortened: as §1

Lolium perenne (LOLPE) [10] = experiment: Test Example 1 pre-emergence herbicidal activity; conditions: Lolium perenne, 480 h, rate 250 g/ha, evaluated 20 days later, read-out: Pre-emergence activity LOLPE (100=total damage to plant; 0=no damage to plant)
Procedure, shortened: as §1

Avena fatua (AVEFA) [11] = experiment: Test Example 1 pre-emergence herbicidal activity; conditions: Avena fatua, 480 h, rate 250 g/ha, evaluated 20 days later, read-out: Pre-emergence activity AVEFA (100=total damage to plant; 0=no damage to plant)
Procedure, shortened: as §1

[12] = test system: Digitaria sanguinalis (DIGSA); experiment: Test Example 1 pre-emergence herbicidal activity; conditions: Digitaria sanguinalis, 480 h, rate 250 g/ha, evaluated 20 days later, read-out: Pre-emergence activity DIGSA (100=total damage to plant; 0=no damage to plant)
Procedure, shortened: as §1

Structure (SMILES) | pest or weed control at 125 g/ha [1] | pest or weed control at 125 g/ha [2] | pest or weed control at 125 g/ha (Setaria faberi (SETFA) [3]) | pest or weed control at 125 g/ha (Lolium perenne (LOLPE) [4]) | pest or weed control at 125 g/ha (Avena fatua (AVEFA) [5]) | pest or weed control at 125 g/ha [6] | pest or weed control at 250 g/ha [7] | pest or weed control at 250 g/ha [8] | pest or weed control at 250 g/ha (Setaria faberi (SETFA) [9]) | pest or weed control at 250 g/ha (Lolium perenne (LOLPE) [10]) | pest or weed control at 250 g/ha (Avena fatua (AVEFA) [11]) | pest or weed control at 250 g/ha [12]
CCc1cc(C)cc(CC)c1C1=C(O)[C@H]2[C@@H](C1=O)[C@@H]1C=C(C#C[Si](C)(C)C)[C@H]2O1 (racemic) [Example T11] | 70% | 40% | 70% | 30% | 20% | 80% | 30% | 30% | 20% | 60% | 40% | 0%
Cc1cc(C)c(C2=C(O)[C@H]3[C@@H](C2=O)[C@]2(C)CC(C)[C@@]3(C)O2)c(C)c1 (stereo partly drawn) [Example T125] | 90% | 80% | 80% | 70% | 70% | 80% | 100% | 70% | 100% | 100% | 70% | 100%
Cc1cc(C)c(C2=C(O)[C@@H]3[C@@H]4O[C@@H](C[C@H]4c4ccc([N+](=O)[O-])cc4)[C@@H]3C2=O)c(C)c1 [Example T90] | 80% | 90% | 60% | 60% | 80% | 80% | 70% | 10% | 40% | 20% | 60% | 60%
CCc1cc(C)cc(CC)c1C1=C(O)[C@@H]2[C@@H]3O[C@@H](C[C@H]3c3cc(C(F)(F)F)ccc3Cl)[C@@H]2C1=O [Example T169] | 80% | 90% | 60% | 30% | 10% | 40% | 0% | 20% | 0% | 40% | 30% | 0%
CCc1cc(C)cc(CC)c1C1=C(O)[C@@H]2[C@@H]3O[C@@H](C[C@H]3c3cccc(C#N)c3)[C@@H]2C1=O [Example T182] | 100% | 100% | 100% | 80% | 90% | 100% | 90% | 30% | 50% | 40% | 50% | 80%
CCc1cc(C)cc(CC)c1C1=C(O)[C@H]2[C@@H](C1=O)[C@@H]1CC[C@@]2(C)O1 [Example T8] | 100% | 100% | 100% | 100% | 100% | 100% | 100% | 100% | 100% | 100% | 90% | 100%
Cc1cc(C)c(C2=C(O)[C@H]3[C@@H](C2=O)[C@@H]2C=C[C@@]3(CSC(C)C)O2)c(C)c1 (racemic) [Example T43] | 60% | 10% | 40% | 0% | 0% | 20% | 0% | 10% | 50% | 0% | 20% | 20%
CSC[C@]12C=C[C@H](O1)[C@@H]1C(=O)C(c3c(C)cc(C)cc3C)=C(O)[C@@H]12 (racemic) [Example T41] | 80% | 40% | 80% | 0% | 0% | 80% | 70% | 50% | 60% | 20% | 30% | 30%
Cc1cc(C)c(C2=C(O)[C@H]3[C@@H](C2=O)[C@@H]2C=C(CO)[C@@]3(C)O2)c(C)c1 [Example T58] | 30% | 0% | 30% | 0% | 10% | 40% | 60% | 0% | 0% | 0% | 10% | 0%
Cc1cc(C)c(C2=C(O)[C@H]3[C@@H](C2=O)[C@@H]2C=C[C@@]3(C(C)O)O2)c(C)c1 (mixture of isomers) [Example T39] | 70% | 10% | 60% | 0% | 20% | 70% | 30% | 10% | 40% | 30% | 20% | 30%
CCc1cc(C)cc(CC)c1C1=C(O)[C@@H]2[C@@H]3O[C@@H](C[C@H]3c3cc(F)ccc3C)[C@@H]2C1=O [Example T147] | 90% | 90% | 70% | 40% | 90% | 100% | 90% | 40% | 60% | 40% | 0% | 40%
CCc1cc(C)cc(CC)c1C1=C(O)[C@@H]2[C@@H]3O[C@@H](C[C@H]3c3ccc(C(C)=O)cc3)[C@@H]2C1=O [Example T171] | 100% | 70% | 90% | 20% | 60% | 80% | 70% | 30% | 70% | 10% | 0% | 40%
Cc1cc(C)c(C2=C(O)[C@@H]3[C@@H]4O[C@@H](C[C@H]4c4cccc(C#N)c4)[C@@H]3C2=O)c(C)c1 [Example T89] | 100% | 80% | 90% | 80% | 80% | 90% | 20% | 20% | 30% | 40% | 60% | 30%
